Data as given in publication PMC9071123 (PLoS Neglected Tropical Diseases, 2022).
“And” between values parts separate entries of the source, which are not always exact repeats. Identical values can stand only once. Counter-ions that a name gives are not always drawn. Like-named read-outs stand apart in the source and are kept apart here.

Experiments:
[1] = tested on: SARS-CoV-2 S-mediated cell-cell fusion; format: cell-based
[2] = tested on: SARS-CoV-2; assay: microbe, parasite or virus in culture; format: cell-based, SARS-CoV-2 (WIV-04); conditions: for EC50: Severe acute respiratory syndrome coronavirus 2, Vero C1008, 36 h
[3] = tested on: Vero E6 cells; assay: Cytotoxicity CCK8 assay, Vero E6
[4] = Cytotoxicity CCK8 assay, Vero E6; conditions: African green monkey, Vero E6 cells
[5] = tested on: SARS-CoV-2; conditions: previous study ref 19; cited from earlier work
[6] = tested on: Vero E6 cells; conditions: African green monkey, 36 h
[7] = tested on: SARS-CoV-2; assay: Virus attachment assay in Vero E6 cells; conditions: 10 μM, Vero E6, 4°C 1 h
Experimental: After synchronized adsorption for 1 h, the unbound SARS-CoV-2 virions were removed by PBS washing, and the relative levels of bound SARS-CoV-2 virions were measured by qRT-PCR assay.

[8] = tested on: SARS-CoV-2; assay: microbe, parasite or virus in culture; format: cell-based, SARS-CoV-2 (WIV-04); conditions: Severe acute respiratory syndrome coronavirus 2, Caco-2, 36 h
[9] = in vitro; conditions: African green monkey
[10] = tested on: Renilla luciferase (Rluc) replicon of SARS-CoV-2; format: cell-based
[11] = in vitro; conditions: human
[12] = tested on: VSV-delG-Rluc-SARS-CoV-2-S pseudovirus; format: cell-based; conditions: 10 μM
[13] = tested on: Caco2 cells; conditions: human, 36 h

In the case of `COc1ccc2cc1Oc1ccc(cc1)C[C@H]1c3c(cc4c(c3Oc3cc5c(cc3OC)CCN(C)[C@@H]5C2)OCO4)CCN1C` [Cepharanthine, cepharanthine], the “inhibition of S-mediated cell-cell fusion (syncytial phenotype)” value (from here on “inhibition … (syncytial phenotype)”) [1] is reported as “apparent inhibitory effects”, the “%inhibiton, mean (viral RNA genomic copy number)” value [2] is reported as 99.5371% and 98.6265% and 86.3235% and 71.2349% and 67.6803% and the “inhibition against SARS-CoV-2 infection” value [2] is reported as “dose-dependent inhibition”. The “selective index (SI)” value [2] was over 8.93, the EC50 [2] was 2240 nM and the “%inhibiton, mean (CC50 data, CCK-8)” value ([3]; Vero-E6, 0.078125 μM) was 9.153%. For the same compound, the “%inhibiton, mean (CC50 data, CCK-8)” value ([3]; Vero-E6, 0.15625 μM) was 9.469%, the “%inhibiton, mean (CC50 data, CCK-8)” value ([3]; Vero-E6, 0.3125 μM) was 5.3801% and the “%inhibiton, mean (CC50 data, CCK-8)” value ([3]; Vero-E6, 0.625 μM) was 1.292%. For the same compound, the “%inhibiton, mean (CC50 data, CCK-8)” value ([3]; Vero-E6, 1.25 μM) was 5.646%, the “%inhibiton, mean (CC50 data, CCK-8)” value ([3]; Vero-E6, 2.5 μM) was 5.87% and the “%inhibiton, mean (CC50 data, CCK-8)” value ([3]; Vero-E6, 5 μM) was 7.302%. The “%inhibiton, mean (CC50 data, CCK-8)” value ([3]; Vero-E6, 10 μM) was 3.537%, the “%inhibiton, mean (CC50 data, CCK-8)” value ([3]; Vero-E6, 20 μM) was 2.215% and the CC50 at 36 h [4] was over 20 µM. For the same compound, the “inhibition of the SARS-CoV-2 induced cytopathic effect” value [5] was “efficiently inhibit”.

With `COc1ccc2cc1Oc1ccc(cc1)C[C@H]1c3cc(c(OC)cc3CCN1C)Oc1c(O)c(OC)cc3c1[C@H](C2)N(C)CC3` [Fangchinoline, fangchinoline] the “inhibition … (syncytial phenotype)” value [1] was “apparent inhibitory effects”, the “inhibition against SARS-CoV-2 infection” value [2] was “dose-dependent inhibition” and the “selective index (SI)” value [2] was over 9.57. The EC50 [2] was 2090 nM, the “%inhibiton, mean (CC50 data, CCK-8)” value ([3]; Vero-E6, 0.078125 μM) was 7.966% and the “%inhibiton, mean (CC50 data, CCK-8)” value ([3]; Vero-E6, 0.15625 μM) was 4.163%. For the same compound, the “%inhibiton, mean (CC50 data, CCK-8)” value ([3]; Vero-E6, 0.3125 μM) was 4.478%, the “%inhibiton, mean (CC50 data, CCK-8)” value ([3]; Vero-E6, 0.625 μM) was 8.257% and the “%inhibiton, mean (CC50 data, CCK-8)” value ([3]; Vero-E6, 1.25 μM) was 10.5597%. For the same compound, the “%inhibiton, mean (CC50 data, CCK-8)” value ([3]; Vero-E6, 2.5 μM) was 7.088%, the “%inhibiton, mean (CC50 data, CCK-8)” value ([3]; Vero-E6, 5 μM) was 14.0504% and the “%inhibiton, mean (CC50 data, CCK-8)” value ([3]; Vero-E6, 10 μM) was 8.415%. The “%inhibiton, mean (CC50 data, CCK-8)” value ([3]; Vero-E6, 20 μM) was 0.3804%, the CC50 at 36 h [4] was over 20 µM and the “inhibition of the SARS-CoV-2 induced cytopathic effect” value [5] was “efficiently inhibit”.

In the case of `COc1cc2c(cc1OC)[C@@H](Cc1ccc(O)c(Oc3cc4c(cc3OC)CCN(C)[C@@H]4Cc3ccc(O)cc3)c1)N(C)CC2` [liensinine], the “inhibition … (syncytial phenotype)” value [1] is given as “apparent inhibitory effects” and the “inhibition of the SARS-CoV-2 induced cytopathic effect” value [5] is given as “efficiently inhibit”.

For `COc1ccc2cc1Oc1ccc(cc1)C[C@H]1c3cc(c(OC)cc3CCN1C)Oc1c(OC)c(OC)cc3c1[C@H](C2)N(C)CC3` [Tetrandrine, tetrandrine], the “inhibition … (syncytial phenotype)” value [1] was “apparent inhibitory effects”, the “inhibition against SARS-CoV-2 infection” value [2] was “dose-dependent inhibition” and the “selective index (SI)” value [2] was over 6.92. For the same compound, the EC50 [2] was 2890 nM, the “%inhibiton, mean (CC50 data, CCK-8)” value ([3]; Vero-E6, 0.078125 μM) was 5.4651% and the “%inhibiton, mean (CC50 data, CCK-8)” value ([3]; Vero-E6, 0.15625 μM) was 9.075%. The “%inhibiton, mean (CC50 data, CCK-8)” value ([3]; Vero-E6, 0.3125 μM) was 8.155%, the “%inhibiton, mean (CC50 data, CCK-8)” value ([3]; Vero-E6, 0.625 μM) was 11.3125% and the “%inhibiton, mean (CC50 data, CCK-8)” value ([3]; Vero-E6, 1.25 μM) was 11.2558%. For the same compound, the “%inhibiton, mean (CC50 data, CCK-8)” value ([3]; Vero-E6, 2.5 μM) was 4.063%, the “%inhibiton, mean (CC50 data, CCK-8)” value ([3]; Vero-E6, 5 μM) was 5.628% and the “%inhibiton, mean (CC50 data, CCK-8)” value ([3]; Vero-E6, 10 μM) was -1.303%. The “%inhibiton, mean (CC50 data, CCK-8)” value ([3]; Vero-E6, 20 μM) was -2.23%, the CC50 at 36 h [4] was over 20 µM and the “inhibition of the SARS-CoV-2 induced cytopathic effect” value [5] was “efficiently inhibit”.

In the case of `COc1ccc(C[C@@H]2c3cc(Oc4cc(C[C@@H]5c6cc(O)c(OC)cc6CCN5C)ccc4O)c(OC)cc3CCN2C)cc1` [isoliensinine], the “inhibition … (syncytial phenotype)” value [1] is given as “apparent inhibitory effects” and the “inhibition of the SARS-CoV-2 induced cytopathic effect” value [5] is given as “efficiently inhibit”.

For `COc1cc2c3cc1Oc1c(OC)c(OC)cc4c1[C@@H](Cc1ccc(O)c(c1)Oc1ccc(cc1)C[C@@H]3N(C)CC2)N(C)CC4` [Berbamine hydrochloride], the “%inhibiton, mean (CC50 data, CCK-8)” value ([6]; 0.3125 μM) was -6.065%, the “%inhibiton, mean (CC50 data, CCK-8)” value ([6]; 0.625 μM) was -4.636% and the “%inhibiton, mean (CC50 data, CCK-8)” value ([6]; 1.25 μM) was -0.8416%. For the same compound, the “%inhibiton, mean (CC50 data, CCK-8)” value ([6]; 2.5 μM) was -0.7911%, the “%inhibiton, mean (CC50 data, CCK-8)” value ([6]; 5 μM) was -7.026% and the “%inhibiton, mean (CC50 data, CCK-8)” value ([6]; 10 μM) was -8.006%. For the same compound, the “%inhibiton, mean (CC50 data, CCK-8)” value ([6]; 20 μM) was 1.038%, the “%inhibiton, mean (CC50 data, CCK-8)” value ([6]; 40 μM) was 73.2674% and the “%inhibiton, mean (CC50 data, CCK-8)” value ([6]; 80 μM) was 78.8829%. The “cell-attached viral RNA copies versus DMSO control group” value [7] was “no significant difference”, the “Viral copies (Normalized to DMSO), mean” value ([7]; MOI 0.05 (DMSO = 100)) was 94.7359 and the EC50 [8] was 1890 nM. The CC50 at 36 h [9] was 66.9 µM, the “replicon luciferase signal, drug treatment versus DMSO” value [10] was “no significant difference” and the CC50 at 36 h [11] was 31.9 µM. For the same compound, the “inhibition … (syncytial phenotype)” value [1] was “little or no such syncytial phenotype was observed”, the “reduction of intracellular luciferase activity compared to DMSO treatment” value ([12]; Vero E6, 24 h post pseudovirus infection) was “about 10 fold” and the “intracellular luciferase activity, mean” value ([12]; Vero E6, 24 h post-infection (DMSO mean 389736)) was 47678.5. The EC50 [2] was 1730 nM, the “%inhibiton, mean (CC50 data, CCK-8)” value ([13]; 0.3125 μM) was -11.728% and the “%inhibiton, mean (CC50 data, CCK-8)” value ([13]; 0.625 μM) was -16.6504%. For the same compound, the “%inhibiton, mean (CC50 data, CCK-8)” value ([13]; 1.25 μM) was -15.2704%, the “%inhibiton, mean (CC50 data, CCK-8)” value ([13]; 2.5 μM) was -14.7661% and the “%inhibiton, mean (CC50 data, CCK-8)” value ([13]; 5 μM) was -19.7288%. For the same compound, the “%inhibiton, mean (CC50 data, CCK-8)” value ([13]; 10 μM) was -18.7648%, the “%inhibiton, mean (CC50 data, CCK-8)” value ([13]; 20 μM) was -1.748% and the “%inhibiton, mean (CC50 data, CCK-8)” value ([13]; 40 μM) was 50.1206%. The “%inhibiton, mean (CC50 data, CCK-8)” value ([13]; 80 μM) was 67.6973%.
